In US11541132B2, “Radiolabeled compounds” (Hoffmann-La Roche Inc., priority 2017, dated 2023):

What was measured:
[1] = target: T1, native Aβ aggregates in human AD brain tissue sections (Homo sapiens, UniProt P05067); experiment: Aβ in vitro displacement assay (selectivity counterscreen, [3H]Example 3 autoradiography); format: binding; settings: 1 μM compound; 3 nM [3H]Example 3; human AD brain sections; read-out: sel. counterscreen PCT_INHIB AD @ 1 μM (% displacement of [3H]Example 3)
T1 construct: native Aβ aggregates in human AD brain tissue samples; from tissue; host or cells: human AD brain tissue sections

[2] = target: T2, native aSyn aggregates in A30P transgenic mouse brain sections (Homo sapiens, UniProt P37840, A30P); experiment: aSyn in vitro displacement assay ([3H]Example-3 autoradiography); format: binding, mutant human aSyn gene); settings: 1 μM compound; 3 nM [3H]Example-3; A30P transgenic mouse brain sections; read-out: PCT_INHIB A30P @ 1 μM (% displacement of [3H]Example-3)
T2 construct: from tissue; host or cells: brain sections (midbrain and pons as ROI) of A30P transgenic mice, line B6.D2-Tg(Thy1-SNCA*30P)31Pjk

T1 sequence (P05067 672-713 limits assumed): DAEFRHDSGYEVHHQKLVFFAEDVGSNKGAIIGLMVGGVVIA

| inhibition at 1 µM [1] [%] | inhibition at 1 µM [2] [%] | SMILES |
| --- | --- | --- |
| 93 | 94 | O=C(Nc1ccc(N2CCN(c3cccnc3)CC2)cc1)c1ccc(OCF)cc1 [Example 134, 4-(fluoromethoxy)-N-(4-(4-(pyridin-3-yl)piperazin-1-yl)phenyl)benzamide] |
| 98 | 97 | O=C(Nc1ccc(N2CCN(c3ccccn3)CC2)cc1)c1ccc(OCF)cc1 [Example 135, 4-(fluoromethoxy)-N-[4-(4-pyridin-2-ylpiperazin-1-yl)phenyl]benzamide] |
| 92 | 91 | N#Cc1ccc(N2CCN(c3ccc(NC(=O)c4ccc(OCF)cc4)cc3)CC2)nc1 [Example 136, N-(4-(4-(5-cyanopyridin-2-yl)piperazin-1-yl)phenyl)-4-(fluoromethoxy) benzamide] |
| 92 | 80 | O=C(Nc1ccc(N2CCN(c3ccccn3)CC2)cc1)c1ccc(OCCOCCO)cc1 [Example 137, 4-(2-(2-Hydroxyethoxy)ethoxy)-N-(4-(4-(pyridin-2-yl)piperazin-1-yl)phenyl)benzamide] |
| 89 | 82 | O=C(Nc1ccc(N2CCN(c3cccnc3)CC2)cc1)c1ccc(O)cc1 [Example 138, 4-Hydroxy-N-[4-(4-pyridin-3-ylpiperazin-1-yl)phenyl]benzamide] |
| 94 | 94 | COc1ccc(C(=O)Nc2ccc(N3CCN(c4ccc(C#N)cc4OC)CC3)cc2)cc1 [Example 139, N-(4-(4-(4-Cyano-2-methoxyphenyl)piperazin-1-yl)phenyl)-4-methoxybenzamide] |
| 93 | 94 | COc1ccc(C(=O)Nc2ccc(N3CCN(c4ccc(C#N)c(OC)c4)CC3)cc2)cc1 [Example 140, N-(4-(4-(4-Cyano-3-methoxyphenyl)piperazin-1-yl)phenyl)-4-methoxybenzamide] |
| 94 | 96 | COc1ccc(C(=O)Nc2ccc(N3CCN(c4ccc(F)cn4)CC3)cc2)cc1 [Example 141, N-(4-(4-(5-Fluoropyridin-2-yl)piperazin-1-yl)phenyl)-4-methoxybenzamide] |
| 91 | 91 | COc1ccc(C(=O)Nc2ccc(N3CCN(c4ccc(N(C)C)cn4)CC3)cc2)cc1 [Example 142, N-(4-(4-(5-(Dimethylamino)pyridin-2-yl)piperazin-1-yl)phenyl)-4-methoxybenzamide] |
| 91 | 91 | COc1ccc(C(=O)Nc2ccc(N3CCN(c4ncc(C#N)cn4)CC3)cc2)cc1 [Example 143, N-(4-(4-(5-Cyanopyrimidin-2-yl)piperazin-1-yl)phenyl)-4-methoxybenzamide] |
| 92 | 89 | COc1ccc(C(=O)Nc2ccc(N3CCN(c4ccc(C#N)cc4C)CC3)cc2)cc1 [Example 144, N-(4-(4-(4-Cyano-2-methylphenyl)piperazin-1-yl)phenyl)-4-methoxybenzamide] |
| 97 | 98 | COc1ccc(C(=O)Nc2ccc(N3CCN(c4ccc(C#N)cc4F)CC3)cc2)cc1 [Example 145, N-(4-(4-(4-Cyano-2-fluorophenyl)piperazin-1-yl)phenyl)-4-methoxybenzamide] |
| 91 | 95 | COc1ccc(C(=O)Nc2ccc(N3CCN(c4cccc(F)n4)CC3)cc2)cc1 [Example 146, N-(4-(4-(6-Fluoropyridin-2-yl)piperazin-1-yl)phenyl)-4-methoxybenzamide] |
| 91 | 88 | COc1ccc(C(=O)Nc2ccc(N3CCN(c4cnc(C#N)cn4)CC3)cc2)cc1 [Example 147, N-(4-(4-(5-Cyanopyrazin-2-yl)piperazin-1-yl)phenyl)-4-methoxybenzamide] |
| 89 | 86 | COc1ccc(C(=O)Nc2ccc(N3CCN(c4ncccc4F)CC3)cc2)cc1 [Example 148, N-(4-(4-(3-Fluoropyridin-2-yl)piperazin-1-yl)phenyl)-4-methoxybenzamide] |
| 91 | 93 | COc1ccc(C(=O)Nc2ccc(N3CCN(c4cc(Cl)ccn4)CC3)cc2)cc1 [Example 149, N-(4-(4-(4-Chloropyridin-2-yl)piperazin-1-yl)phenyl)-4-methoxybenzamide] |
| 94 | 98 | COc1ccc(C(=O)Nc2ccc(N3CCN(c4ccc(C#N)c(F)c4)CC3)cc2)cc1 [Example 150, N-(4-(4-(4-Cyano-3-fluorophenyl)piperazin-1-yl)phenyl)-4-methoxybenzamide] |
| 91 | 93 | COc1ccc(C(=O)Nc2ccc(N3CCN(c4cc(C)c(C#N)cn4)CC3)cc2)cc1 [Example 151, N-(4-(4-(5-Cyano-4-methylpyridin-2-yl)piperazin-1-yl)phenyl)-4-methoxybenzamide] |
| 88 | 90 | COc1ccc(C(=O)Nc2ccc(N3CCN(c4cc(Cl)c(C#N)cn4)CC3)cc2)cc1 [Example 152, N-(4-(4-(4-Chloro-5-cyanopyridin-2-yl)piperazin-1-yl)phenyl)-4-methoxybenzamide] |
| 87 | 92 | COc1ccc(C(=O)Nc2ccc(N3CCN(c4ccc(C#N)c(C)c4)CC3)cc2)cc1 [Example 153, N-(4-(4-(4-Cyano-3-methylphenyl)piperazin-1-yl)phenyl)-4-methoxybenzamide] |
| 96 | 98 | COc1ccc(C(=O)Nc2ccc(N3CCN(c4ccc(C#N)nc4)CC3)cc2)cc1 [Example 154, N-(4-(4-(6-Cyanopyridin-3-yl)piperazin-1-yl)phenyl)-4-methoxybenzamide] |
| 97 | 85 | COc1ccc(C(=O)Nc2ccc(N3CCN(c4ccnc(OC)c4)CC3)cc2)cc1 [Example 155, 4-Methoxy-N-(4-(4-(2-methoxypyridin-4-yl)piperazin-1-yl)phenyl)benzamide] |
| 76 | 81 | COc1ccc(C(=O)Nc2ccc(N3CCN(c4ccc(C)nc4)CC3)cc2)cc1 [Example 156, 4-Methoxy-N-(4-(4-(6-methylpyridin-3-yl)piperazin-1-yl)phenyl)benzamide] |
| 92 | 91 | COc1ccc(C(=O)Nc2ccc(N3CCN(c4ccc(C#N)cc4)CC3)cc2)cn1 [Example 157, N-(4-(4-(4-Cyanophenyl)piperazin-1-yl)phenyl)-6-methoxynicotinamide] |
| 87 | 83 | Cn1cc(C(=O)Nc2ccc(N3CCN(c4ccc(C#N)cc4)CC3)cc2)cn1 [Example 158, N-(4-(4-(4-Cyanophenyl)piperazin-1-yl)phenyl)-1-methyl-1H-pyrazole-4-carboxamide] |
| 89 | 88 | COc1ccc(C(=O)Nc2ccc(N3CCN(c4ccc(C#N)cn4)CC3)cc2)cc1OC [Example 159, N-(4-(4-(5-Cyanopyridin-2-yl)piperazin-1-yl)phenyl)-3,4-dimethoxybenzamide] |
| 95 | 96 | COc1ccc(C(=O)Nc2ccc(N3CCN(c4ccc(C#N)cn4)CC3)cc2)cc1F [Example 160, N-(4-(4-(5-Cyanopyridin-2-yl)piperazin-1-yl)phenyl)-3-fluoro-4-methoxybenzamide] |
